Source: US10005762B2, “Pyridine derivatives” (Astellas Pharma Inc., priority 2014, dated 2018)
Marks after values point to notes of the source that are not given here.

What follows are compounds tested against IRAP (Rattus norvegicus (Rat), UniProt P97629) (assay: Inhibition of IRAP activity (AVP degradation, rat epididymal fat pad microsomes, MALDI-MS)). Conditions: read-out: IRAP IC50, AVP 25 μM, 1 h at 37° C.
IRAP, sequence (P97629 whole entry): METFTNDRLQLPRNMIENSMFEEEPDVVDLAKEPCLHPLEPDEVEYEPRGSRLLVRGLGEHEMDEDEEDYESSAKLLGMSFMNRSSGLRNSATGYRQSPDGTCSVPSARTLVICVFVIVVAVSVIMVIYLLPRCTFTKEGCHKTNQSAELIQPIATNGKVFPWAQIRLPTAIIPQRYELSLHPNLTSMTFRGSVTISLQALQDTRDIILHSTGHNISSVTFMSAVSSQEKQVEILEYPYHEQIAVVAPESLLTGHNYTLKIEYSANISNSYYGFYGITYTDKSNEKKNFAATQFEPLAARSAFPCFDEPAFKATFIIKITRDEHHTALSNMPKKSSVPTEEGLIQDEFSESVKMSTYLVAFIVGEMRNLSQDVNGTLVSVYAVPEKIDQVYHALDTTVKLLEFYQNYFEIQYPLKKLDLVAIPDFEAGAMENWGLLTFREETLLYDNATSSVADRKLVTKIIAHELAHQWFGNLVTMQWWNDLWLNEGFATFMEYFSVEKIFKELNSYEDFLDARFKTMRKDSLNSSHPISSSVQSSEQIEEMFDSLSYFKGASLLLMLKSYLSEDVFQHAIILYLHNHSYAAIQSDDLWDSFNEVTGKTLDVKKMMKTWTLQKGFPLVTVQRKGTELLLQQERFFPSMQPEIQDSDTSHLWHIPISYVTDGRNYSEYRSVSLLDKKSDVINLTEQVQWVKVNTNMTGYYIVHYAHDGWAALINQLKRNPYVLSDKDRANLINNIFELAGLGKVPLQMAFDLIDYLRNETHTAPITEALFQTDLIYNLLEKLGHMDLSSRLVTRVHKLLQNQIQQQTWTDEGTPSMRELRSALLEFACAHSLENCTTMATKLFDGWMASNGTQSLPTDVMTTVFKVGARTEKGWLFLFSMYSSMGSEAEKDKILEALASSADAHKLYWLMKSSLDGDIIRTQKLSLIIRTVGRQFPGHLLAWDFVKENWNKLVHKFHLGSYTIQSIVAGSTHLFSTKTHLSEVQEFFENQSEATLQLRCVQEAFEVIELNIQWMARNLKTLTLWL
Experimental: (1) Inhibition of IRAP Activity
Residual AVP was then determined by mass spectrometry (MALDI-MS).

In order of rising IC50:
1. CC(C)C[C@H](N)[C@](O)(Cc1cc(C2=CCOCC2)ccn1)C(=O)O [Example 59]  110 nM
2. COc1ccc(-c2ccnc(C[C@](O)(C(=O)O)[C@@H](N)CC(C)C)c2)cc1 [Example 57]  130 nM
3. CC(C)C[C@H](N)[C@](O)(Cc1nccc2c1CCC(OCc1ccccc1)C2)C(=O)O (some centres unmarked) [Example 80]  130 nM
4. CC(C)C[C@H](N)[C@](O)(Cc1cc(C2CCOCC2)ccn1)C(=O)O [Example 78]  160 nM
5. CC(C)C[C@H](N)[C@](O)(Cc1nccc2c1CCC1(CCCC1)C2)C(=O)O [Example 19]  220 nM

Each compound was assayed on water-loaded rats (assay: Antidiuresis test in water-loaded rats (oral administration)). Conditions: 1 mg/kg oral (values marked *); water load 30 ml/kg 1 h after dosing; urine volume 1 h after water loading; vs vehicle control.
Type: in vivo, rat
Experimental: When a test compound is a free base, one molar equivalent hydrochloric acid was added to dissolve the compound in the solvent. Rats in a vehicle control group were administered only with the vehicle. One hour after the administration, 30 ml/kg of distilled water was orally administered to the rats. One hour after the water loading, the urine volume was measured (urine volumes less than 0.3 ml were considered as 0 ml) to calculate the ratio of the urine volume (urinary excretion rate) to the amount of water load.

In the case of CSC[C@H](N)[C@](O)(Cc1nccc2c1C[C@@H](CCC1CC1)C2)C(=O)O [Example 44], the “Inhibition of urination (%)” value is reported as 51* %.
CCCSC[C@H](N)[C@](O)(Cc1nccc2c1C[C@H](CCC1CC1)C2)C(=O)O [Example 42] was tested, and the “Inhibition of urination (%)” value was 81* %.
With CSC[C@H](N)[C@](O)(Cc1nccc2c1C[C@H](CCC1CC1)C2)C(=O)O [Example 41] the “Inhibition of urination (%)” value was 69* %.

Same assay, conditions: 3 mg/kg oral; water load 30 ml/kg 1 h after dosing; urine volume 1 h after water loading; vs vehicle control

In order of falling “Inhibition of urination (%)” value:
1. N[C@@H](CCC1CC1)[C@](O)(Cc1cc(CCCC2CC2)ccn1)C(=O)O [Example 40]  100%
2. CC(C)C[C@H](N)[C@](O)(Cc1nccc2c1C[C@H](CCC1CC1)C2)C(=O)O [Example 52]  90%
3. Cc1cnc(C[C@](O)(C(=O)O)[C@@H](N)COCCC2CC2)cc1CCCC1CC1 [Example 25]  88%
